The text below walks through data of patent US20170065667A1, “METHODS FOR SYNCHRONIZATION OF ESTROUS CYCLES AND OVULATION FOR FIXED TIME ARTIFICIAL INSEMINATION IN CATTLE” (Parnell Technologies Pty Ltd., priority 2014, published 2017).

For assay [1], the system named is lactating dairy cows. Particulars: cited from earlier work; for percentage of cows with complete CL regression (<0.4 ng/mL 56 hours after PGF2α): 7 day Ovsynch.
For assay [2], the system named is lactating Holstein cows. Kind of assay: Experiment 1: CL regression / circulating P4 after one vs. two 2 mL i.m. cloprostenol sodium injections in Double-Ovsynch. The conditions noted are these: for CL regression, % of cows: quartiles 2, 3 and 4 combined; for circulating P4 concentrations at 56 hours after the first injection: day of final gonadorelin acetate injection, serum, in ng/mL. In kind it is in vivo, cattle. As for the experimental part:
An experiment was conducted to determine the effectiveness of the exogenous administration of hormones for synchronizing the estrous cycles of lactating dairy cattle and resulting pregnancy rates subsequent to FTAI. A total of 373 lactating Holstein cows (172 primiparous, 201 multiparous) were synchronized with a Double-Ovsynch program comprising a first or presynchronization Ovsynch phase followed by a second Ovsynch phase. All animals were synchronized using a GnRH composition (about 100 mcg of gonadorelin acetate per mL, GONAbreed®, Parnell Technologies Pty Ltd, Alexandria, Australia) and a PGF2α analog composition (about 250 mcg of cloprostenol sodium per mL, estroPLAN®, Parnell Technologies Pty Ltd, Alexandria, Australia). The first Ovsynch phase began at about 51 to about 57 days in milk where the cows received a first 1 mL intramuscular injection of a gonadorelin acetate composition. At about 58 to about 64 days in milk, the cows received a first 2 mL intramuscular injection of a cloprostenol sodium composition. At about 61 to about 67 days in milk, the cows received a second 1 mL intramuscular injection of a gonadorelin acetate composition concluding the first Ovsynch phase. The animals were then synchronized with a second Ovsynch phase comprising an Ovsynch-56 protocol beginning at about 68 to about 74 days in milk where the cows received a third 1 mL intramuscular injection of gonadorelin acetate composition. At about 75 to about 81 days in milk, the animals received a second 2 mL intramuscular injection of a cloprostenol sodium composition. At about 77 to about 83 days in milk (about 56 hours after the second injection of a cloprostenol sodium composition), the animals received a fourth 1 mL intramuscular injection of a gonadorelin acetate composition. And at about 78 to about 84 days in milk (about 16 hours after the fourth injection of the gonadorelin acetate composition), the animals receive AI, concluding the second Ovsynch phase. […] The experimental protocol is shown in the diagram of FIG. 2. Blood samples of the cows were taken at the time of the second injection of the cloprostenol sodium composition (at about 72 hours before FTAI) and at the time of the fourth injection of the gonadorelin acetate composition (at about 16 hours before FTAI). Blood samples were collected from the coccygeal vessels into vacuum tubes. Following collection, the blood samples were placed on ice and transported to a laboratory. After clotting (about 16 hours), samples were centrifuged at 3,000 rpm for 20 minutes and serum was isolated into vials, frozen and stored at −20 Celsius until assayed for P4 concentrations. Progesterone was determined directly from serum using a solid phase radioimmunoassay kit (Coat-A-Count, Siemens Healthcare Diagnostics, Los Angeles, Calif.) with no extraction. […] Statistical analyses were performed with SAS (SAS Institute, 2006). Variables with a binomial distribution, such as P/AI and percentage of animals with CL regression, were analyzed by logistic regression using the LOGISTIC procedure. One-tailed comparisons were utilized throughout the study for comparison of the effect of an additional cloprostenol sodium injection on CL regression and animals pregnant to the FTAI. Continuous variables were analyzed using ANOVA with logistic regression utilized to compare the relationship between circulating P4 and the binomial traits. Animals with ≦2.0 ng/mL P4 on day of PGF were removed from the analysis (n=29; 13 primiparous, 16 multiparous) due to lack of synchronization to the double Ovsynch protocol. Therefore, all analyses were done with a total of 344 lactating dairy cows (n=159 primiparous; n=185 multiparous). Statistical differences were considered significant for P≦0.05 and as a tendency for P≦0.15.

For assay [3], the system named is lactating dairy cows. Kind of assay: Combined analysis of Experiments 1 and 2: effect of second cloprostenol sodium injection on P/AI. In kind it is in vivo, cattle. Particulars: Experiments 1 and 2 combined. An excerpt: Experiment 1 and Experiment 2 were done with a similar experimental design and therefore results were combined in order to more thoroughly test the effect of a second cloprostenol sodium injection in the Ovsynch protocol on P/AI. There was no effect of the second PGF on P/AI in primiparous cows (P=0.304). However in multiparous cows, the second cloprostenol sodium injection increased (P=0.046) P/AI by about 12%. This effect of a second cloprostenol sodium injection on P/AI was also observed when all cows were included in the analysis (P=0.042). The final combined analysis of both experiments provided the most statistical power to test our main hypothesis (Table 6). Overall, there was increased (P=0.042) P/AI with a 9.6% relative increase in fertility. As in both experiments, the effect was only statistically detectable in multiparous (P=0.046) and not in primiparous (P=0.304) cows. In our study an effect of parity on fertility was only detected in cows treated with Ovsynch (P=0.04) and not in cows treated with Ovsynch with the second PGF treatment (P=0.17). Future studies should directly test whether parity effects with Ovsynch-type protocols are related primarily to differences in CL regression between parities or reflect other fertility differences related to parity.

Setting [4] is: one injection, overall (all cows), P4 <0.5 ng/mL at 56 h.
Where [5] appears, read: two injections, Quartile 1, [P4] 2.0-5.4 at first injection.
[6] abbreviates: two injections, overall (all cows), P4 <0.5 ng/mL at 56 h.

“And” between values parts separate entries of the source, which are not always exact repeats. Identical values can stand only once. Like-named read-outs stand apart in the source and are kept apart here.

With prostaglandin F2α [PGF], the figures for the “% of cows with CL regression” value in assay [1] (cows that ovulated to the first GnRH) and in assay [1] (cows without ovulation to the first GnRH) were 79.4% and 93%, respectively. Further, the “% of cows not having complete CL regression” value in assay [1] (cows with a d7 and a d14 CL) is 8.2%; in assay [1] (cows with a single d7 CL), 35.6%; in assay [1] (cows with a single d14 CL) it was 3.0%. For the same molecule, the “percentage of cows with complete CL regression (<0.4 ng/mL 56 hours after PGF2α)” value is reported as 84.6% in assay [1] (one PGF2α treatment (day 7)); 95.6% in assay [1] (two PGF2α treatments (day 7 and day 8)). The figures for the “% of cows with complete CL regression (<0.4 ng/mL at 56 hours after PGF2α)” value in assay [1] (resynchronized at 32 days after TAI with Ovsynch (Resynch-32)) and in assay [1] (resynchronized with Double-Ovsynch) were 83.7% and 89.1%, respectively. For the same molecule, in assay [1] (single PGF2α treatment, Ovsynch-type protocols, literature), the “% of cows with lack of complete / inadequate CL regression” value was 10 to 25% and 10-25%. The “% of cows with complete CL regression” value in assay [2] (setting [4]) is 83%; in assay [2] (setting [6]) it was 97%. Also, in assay [2] (single PGF treatment, all cows), the “% of cows that did not completely regress the CL” value stood at 18%. For the same molecule, the “% of cows with inadequate CL regression” value in assay [2] (single PGF treatment, greater circulating P4 at time of PGF) is 11.9%; in assay [2] (single PGF treatment, lower P4 (2.0 to 4.8 ng/mL) at time of PGF), 33.3%. Also, the “CL regression, % (n/n)” value in assay [2] (setting [5]) is recorded as 95.1%. For the same molecule, in assay [2] (two injections), the “CL regression, % of cows” value was determined as 97.6%. Besides, the “effect of the second PGF on P/AI” value in assay [3] (primiparous cows) is given as “no effect”.
Regarding `O=C(O)CCC/C=C\CC1C(O)CC(O)C1/C=C/C(O)COc1cccc(Cl)c1` (stereo not drawn) [cloprostenol sodium], the “percentage of cows with complete CL regression” value in assay [1] (dinoprost 25 mg, cloprostenol 0.5 mg) is recorded as 79%. Besides, in assay [1] (dose from 500 to 750 μg, 7 day protocol), the “effect on CL regression of increasing the dose” value is listed as “increased CL regression in multiparous but not primiparous cows”. Besides, the “percentage of cows with P4 below 0.2 ng/mL at final GnRH” value was determined as 42.0% in assay [2] (one injection) and 60.7% in assay [2] (two injections). Moreover, the “percentage of cows with higher P4 (>0.5 ng/mL) at final GnRH” value in assay [2] (one injection) is reported as 17.0%; in assay [2] (two injections), 2.4%. The “percentage of cows with lower P4 (0.1 to 0.19) at final GnRH” value in assay [2] (one injection) was 34.7%; in assay [2] (two injections) it was 49.4%. The “CL regression, % (n/n)” value in assay [2] (one injection, Quartile 1, [P4] 2.0-4.8 at first injection) was 66.7% and 66.7 (28/42) %; in assay [2] (one injection, Quartile 2, [P4] 4.9-6.7), 84.4 (38/45) %; in assay [2] (one injection, Quartile 3, [P4] 6.8-8.7), 95.5 (42/44) %; in assay [2] (one injection, Quartile 4, [P4] 8.8-12), 84.4 (38/45) %; in assay [2] (setting [5]), 95.1% and 95.1 (39/41) %; in assay [2] (two injections, Quartile 2, [P4] 5.5-7.0), 95.6 (43/45) %. The “CL regression, % (n/n)” value in assay [2] (two injections, Quartile 3, [P4] 7.1-8.6) was 100 (43/43) %; in assay [2] (two injections, Quartile 4, [P4] 8.7-12), 97.4 (38/39) %. Further, the “% of cows with complete CL regression” value in assay [2] (one injection, multiparous, P4 <0.5 ng/mL at 56 h) is listed as 84.4% (81/96); in assay [2] (setting [4]), 83.0% (146/176); in assay [2] (one injection, primiparous, P4 <0.5 ng/mL at 56 h after first injection), 81.2% (65/80); in assay [2] (two injections (second 24 h after first), primiparous, P4 <0.5 ng/mL at 56 h), 97.5% (77/79); in assay [2] (two injections, multiparous, P4 <0.5 ng/mL at 56 h) it was 96.7% (86/89); in assay [2] (setting [6]), 97.0% (163/168). In addition, the “CL regression, % of cows” value is reported as 88.1% in assay [2] (one injection) and 97.6% in assay [2] (two injections). The “circulating P4 concentrations at 56 hours after the first injection” value is listed as 0.4 ± 0.04 in assay [2] (single injection) and 0.2 ± 0.05 in assay [2] (two injections). The “increase in P/AI by second cloprostenol sodium injection” value in assay [3] (multiparous cows) is listed as “about 12%”.
